Data reported in article PMC6814738, “Bacterial MgrB peptide activates chemoreceptor Fpr3 in mouse accessory olfactory system and drives avoidance behaviour” (Nature Communications, 2019).
Values joined by “and” are separate entries in the source; they are usually repeats but may differ in a detail not shown here. Identical values can stand only once. Like-named read-outs stand apart in the source and are kept apart here.

Key:
[1] = test system: mouse Fpr3; details: cited from earlier work
Procedure: We estimate the fraction of knobs responding to f-MKKFRW as ~0.15%, which is similar to the fraction of cells in the VNE that express Fpr3[30]. Strikingly, the sensitivity and sequence-selectivity profile of these responses was nearly identical to the results that we obtained for heterologously expressed Fpr3. The detection threshold of native VSNs for f-MKKFRW was ≤0.1 µM (Fig. 4f), virtually the same as for Fpr3-expres ... || Given the importance of the olfactory system in a variety of behavioural avoidance and defence mechanisms[14],[62],[63], we reasoned that in vivo detection of MgrB peptide may evoke an avoidance reaction in mice. We devised a behavioural assay[14],[60] in order to determine whether direct nasal contact with MgrB peptide evokes unconditioned, innate avoidance (Fig. 8a and Methods). […] (Fig ... || We used custom-made peptides with a length of 6–21 amino acids to screen for agonists. Sequences of fMet peptides were designed according to motifs present at the N-termini of 15,125 specific bacterial proteins as annotated in UniProt. Peptides were chemically synthesised, purified, and verified by mass spectroscopy (MALDI-TOF) by commercial suppliers. Purity of all peptides was >95%. Source, sequence and purity of each peptide are listed in Supplementary Data 1. Lyophilised peptides were routinely dissolved in the Ca^2+ imaging assay buffer C1 (130 mM NaCl, 10 mM HEPES, 5 mM KCl, 2 mM CaCl2, ...

[2] = test system: vomeronasal sensory neurons (VSNs); assay: VNO whole-mount en face confocal Ca2+ imaging of VSN dendritic knobs (Fig. 4, 5); format: cell-based, mouse; design: key to Ca2+ response of f-MKKFRW-responsive VSN knobs / Fpeak: normalised to knob resting fluorescence F0 before stimulation; details: for Fpeak / Ca2+ response of f-MKKFRW-responsive VSN knobs: Fig. 4h; for Fpeak: mean of individual knobs, n = 103 f-MKKFRW, 21 f-MKKFRWVVL, 68 MKKFRW, 26 f-MGFFIS, 63 PUM; for Ca2+ responses in VSNs, in words: VNE of adult B6 mice, f-MKKFRW 1 µM; for Ca2+ response of f-MKKFRW-responsive VSN knobs: adult B6 mice, mean ± s.d., N = 103 (f-MKKFRW), 21 (f-MKKFRWVVL), 68 (MKKFRW), 26 (f-MGFFIS), 63 (PUM)
Excerpt: Mice (6–20 week old, either sex) were euthanized by CO2 inhalation according to institutional guidelines. After decapitation, the skin was removed from the skull, the mandible was cut off and the cranium was opened by a sagittal cut, 1–2-mm right-lateral in parallel to the midline. The palate and the right incisor were removed and the hemisected skull was mounted in low-melting agarose (4%). The bony capsule of the VNO was opened with fine forceps and the nonsensory epithelium was stripped off. Tissue and cell debris were gently washed off, and the en face preparation was superfused with physiological S1 solution (120 mM NaCl, 25 mM NaHCO3, 5 mM KCl, 1 mM MgSO4, 1 mM CaCl2, 10 mM glucose, 5 mM BES, pH 7.3) saturated with carbogen (95% O2, 5% CO2).
Loading of the VNE with Rhod-2/AM (5–15 µM, 1 h) was performed in S1 solution under carbogen atmosphere at RT. Images were taken with an upright confocal laser scanning microscope (Leica TCS SP5 II, 20x water immersion objective HCX APO L20x/1.0w) equipped with Ar and He/Ne lasers. GFP was excited at 488 nm, Venus at 514 nm and Rhod-2 at 543 nm. Emission was measured at 490–520 nm (GFP), 520–600 nm (Venus) and 560–680 nm (Rhod-2). To minimise interference between Venus and Rhod-2 fluorescence, images were taken sequentially (sample interval per image, 3–4 s). Peptide stimuli were applied to the VNE surface with a local perfusion system which, when positioned close to the anterior end of the VNO, produced a continuous solution stream from rostral to caudal along the VNO axis. Data analysis was performed with the open source software ImageJ (NIH). Ca^2+ responses of individual dendritic knobs were normalised to the knob resting fluorescence level obtained before stimulation (ratio Fx/F0, Fx = actual fluorescence; F0 = mean fluorescence of 3–5 images before ligand application). Mapping was performed by superimposing Ca^2+ peak images onto images showing intrinsic fluorescence for specific markers.
Predator urine mix was composed of urine from mountain lion, coyote, bobcat, fox and marten (at equal volume ratios), purchased from Predatorpee (USA) and Kieferle (Germany). The fMet peptides were as described above. Stimuli were applied in S2 solution (140 mM NaCl, 5 mM KCl, 10 mM HEPES, 1 mM CaCl2, 1 mM MgCl2, 10 mM glucose, pH 7.3 with NaOH).

[3] = test system: male mice; assay: Behavioural avoidance test, FEU vs. FEU supplemented with peptide (Fig. 8, Supplementary Fig. 4); format: in vivo, mouse; details: for avoidance, in words: 100 µM, B6 mice (f-MKKFRW also ΔFpr3-lacZ+/+, cGαo+/−, Trpc2+/−); for avoidance index: 100 µM in FEU, mean ± s.e.m.; for Preference (%): group mean value, FEU vs FEU supplemented with 100 µM peptide
Procedure: These assays were adapted from behavioural procedures described previously[14],[60]. We tested avoidance by giving adult male mice (8–14 week old) of various genotypes a choice to freely investigate two types of chemical stimuli: FEU vs. FEU supplemented with a peptide. Mice were sexually naïve and not exposed to the test stimuli prior to the testing day. Mice were habituated for three days (40 min each day) to clean filter papers (2.5 cm diameter), each deposited in a sterile plastic culture dish and placed in opposite corners of the test cage (30 × 12 cm). After the third habituation period, the test subject was transferred into a new cage containing fresh filter papers/dishes with either of the two test stimuli. One filter paper was impregnated with 45 µl of fresh urine pooled from two sexually naïve female B6 mice (8–16 weeks old) in oestrus (FEU, female oestrous urine) and 5 µl physiological solution containing (in mM): NaCl, 130; KCl, 5; Na-Hepes, 10; CaCl2, 2; glucose, 10; pH = 7.4. For testing the effects of specific peptides, the second filter paper was impregnated with FEU supplemented with a given peptide (100 or 50 µM final concentration, dissolved in physiological solution). Direct physical contact was allowed. Behaviour was recorded for 10 min from the top of the cage. Mice were exposed only once to a given peptide solution, and were exposed to only one peptide stimulus per day. Stimuli were presented in randomised order. […] This investigative behaviour was quantified as the time spent in close contact with each filter paper, scored manually by an observer blind to the experimental conditions using Behavioural Observation Research Interactive Software (BORIS)[85]. Contact time was measured as the time during which the nose crossed the border of a petri dish containing impregnated filter paper. An avoidance index was calculated as (TP — aTU)/(aTP + aTU), with TP as the time an individual mouse investigated a FEU-peptide mixture, aTP as the average time of all tested mice investigating this stimulus and aTU as the average time of all mice investigating FEU without added peptide. Negative values represent avoidance and positive values represent attraction. For analysing investigation of sick conspecifics, B6 mice were injected either with LPS or PBS as described above. In total, 4 h post injection, these mice were anaesthetised with 165 mg/kg ketamine (Pharmacia GmbH, Berlin, Germany) and 11 mg/kg xylazine (Bayer Health Care, Leverkusen, Germany) and then used in behavioural tests.

[4] = B6, n = 10-11, negative = avoidance

## f-MLFYFS [signal peptide fragment identified as agonist for mouse Fpr3, reference compound]
[1]; signal peptide fragments
  agonism at mouse Fpr3, in words: agonists for mouse Fpr3

## f-MKKFRWVVL [MgrB nonapeptide]
[2]
  Fpeak: 0.64
  Ca2+ responses in VSNs, in words: VSNs that recognised f-MKKFRW responded also
  Ca2+ response of f-MKKFRW-responsive VSN knobs: 0.64 ± 0.45

## MKKFRW [non-formylated MKKFRW peptide]
[3]
  avoidance, in words: failed to elicit avoidance
[3]; [4]
  avoidance index: 0.07 ± 0.05
[3]; Fig. 8c, individual values, B6 mice
  Preference Index: -0.0604 and 0.2531 and -0.1298 and -0.1953 and 0.1497 and 0.2996 and 0.2407 and -0.00533 and -0.09796 and 0.2025 and 0.1402
[3]; Fig. 8c, mean, B6 mice, n = 11 f-MKKFRW, 11 MKKFRW, 10 f-MGFFIS, 10 f-MEQQNK, FEU control -0.002
  Preference Index: 0.07
[3]; Fig. 8e, individual values, cGao +/-
  Preference Index: -0.2952 and -0.1477 and 0.0923 and 0.1621 and -0.0653 and -0.08718 and -0.2984 and 0.512 and -0.2293 and -0.2843 and -0.4122 and -0.3523
[3]; Fig. 8e, individual values, cGao -/-
  Preference Index: -0.00407 and 0.301 and 0.1658 and 0.1525 and 0.9449 and 0.3984 and 0.4927 and 0.2412 and 0.4087 and 0.6592 and -0.3896 and -0.3365 and -0.3471
[3]; Fig. 8e, mean, cGao +/-, n = 13 f-MKKFRW, 12 MKKFRW, FEU control -0.0358
  Preference Index: -0.12
[3]; Fig. 8e, mean, cGao -/-, n = 13, FEU control 0.15
  Preference Index: 0.21
[3]; Fig. 8f, individual values, Trpc2 +/-
  Preference Index: 0.2866 and 0.03638 and -0.02867 and 0.9217 and 0.4878 and -0.4504 and -0.342 and -0.3772 and -0.3362
[3]; Fig. 8f, individual values, Trpc2 -/-
  Preference Index: 1.085 and 1.60E-05 and 0.07163 and 0.2257 and 0.5213 and -0.3383 and -0.4081 and -0.0323
[3]; Fig. 8f, mean, Trpc2 +/-, n = 12 f-MKKFRW, 9 MKKFRW, FEU control -0.0531
  Preference Index: 0.022
[3]; Fig. 8f, mean, Trpc2 -/-, n = 11 f-MKKFRW, 8 MKKFRW, FEU control -0.10
  Preference Index: 0.14
[3]; Fig. 8g, ∆Fpr3-lacZ +/+ males, FEU/FEU control -5.85844
  Preference (%): 7.718%
[3]; Fig. 8g, ∆Fpr3-lacZ -/- males, FEU/FEU control 2.58474
  Preference (%): 9.878%
[3]; Fig. 8h, Trpc2 +/- males, FEU/FEU control 0.100694
  Preference (%): 6.911%
[3]; Fig. 8h, Trpc2 -/- males, FEU/FEU control -3.21189
  Preference (%): -1.784%
[3]; Fig. 8d, individual values, ∆Fpr3-lacZ +/+
  Preference Index: -0.2521 and -0.1287 and 0.07074 and 0.3269 and 0.2942 and 0.3844
[3]; Fig. 8d, individual values, ∆Fpr3-lacZ -/-
  Preference Index: -0.1393 and 0.3319 and 0.8558 and 1.088 and -0.03627 and 0.0259 and -0.07697 and -0.00886 and -0.09833 and -0.1976 and 0.3575 and 0.2784
[3]; Fig. 8d, mean, ∆Fpr3-lacZ +/+, n = 9 f-MKKFRW, 6 MKKFRW, FEU control -0.06
  Preference Index: 0.12
[3]; Fig. 8d, mean, ∆Fpr3-lacZ -/-, n = 12, FEU control 0.19
  Preference Index: 0.20
[3]; Trpc2 +/−
  avoidance index: 0.02 ± 0.16
[3]; Trpc2 −/−
  avoidance index: 0.14 ± 0.17
[3]; cGαo +/−
  avoidance index: −0.12 ± 0.08
[3]; cGαo −/−, n = 13
  avoidance index: 0.21 ± 0.11
[3]; ∆Fpr3-lacZ +/+
  avoidance index: 0.12 ± 0.11
[3]; ∆Fpr3-lacZ −/−, n = 12
  avoidance index: 0.20 ± 0.12
[2]
  Fpeak: 0.00
  Ca2+ responses in VSNs, in words: failed to evoke Ca^2+ responses in VSNs
  Ca2+ response of f-MKKFRW-responsive VSN knobs: 0.00 ± 0.00

## W-peptide [reference compound]
[1]
  agonism at mouse Fpr3, in words: agonists for mouse Fpr3

## f-MFQQNK [reference compound]
[3]
  avoidance, in words: failed to elicit avoidance
[3]; [4]
  avoidance index: 0.04 ± 0.09
[1]
  activation of heterologously expressed Fpr3, in words: failed to activate heterologously expressed Fpr3

## f-MLFYLA
[1]; signal peptide fragments
  agonism at mouse Fpr3, in words: agonists for mouse Fpr3
